# Assay results reported in PMC9965906, “Discovery and Development Strategies for SARS-CoV-2 NSP3 Macrodomain Inhibitors” (Pathogens, 2023).
# Where “and” joins values, the source holds several entries; their conditions need not be identical. Identical values can stand only once. Counter-ions that a name gives are not always drawn. Like-named read-outs stand apart in the source and are kept apart here.
# Tests used:
# [1] = system: NSP3 Mac1; parameters: method as in PMID 35598780; settings: similar set-up using the peptide, AlphaScreen; cited from earlier work
# [2] = target: NSP3 Mac1; settings: recognition by NSP3 Mac1; cited from earlier work
# [3] = target: SARS-CoV-2 NSP3 Mac1 (Severe acute respiratory syndrome coronavirus 2, UniProt P0DTD1); test: biochemical; type: binding; settings: for inhibitory activity in FDA-approved library screen: primary screen at the set screening concentration
# [4] = system: MacroD1; settings: MacroD1, AlphaScreen-based assay format; cited from earlier work
# [5] = FDA-approved compound library primary screen, 50 µM, single shot
Compound,"NSP3 Mac1 inhibition at 50 µM (%) [3, 5] [%]","inhibition at 50 µM [3, 5] [%]",inhibitory activity in FDA-approved library screen [3],further results
Nc1ncnc2c1ncn2[C@@H]1O[C@H](COP(=O)(O)OP(=O)(O)OC[C@H]2OC(O)[C@H](O)[C@@H]2O)[C@@H](O)[C@H]1O (stereo partly shown) [ADP-ribose],–,–,–,IC50 [1]: 1.5 µM; Kd [2]: 13 µM
"C=C1c2cccc(O)c2C(=O)C2=C(O)[C@]3(O)C(=O)C(C(N)=O)=C(O)[C@@H](N(C)C)[C@@H]3[C@@H](O)[C@H]12 [Methacycline hydrochloride, reference compound]",87,86.8,–,"outcome of dose-response titration ([3]; FDA-approved hit compounds, top concentration 125 µM): strong assay interference"
"O=C1c2c(O)ccc(O)c2C(=O)c2c(NCCNCCO)ccc(NCCNCCO)c21 [Mitoxantrone hydrochloride, reference compound]",–,–,–,"IC50 ([3]; FDA-approved hit compounds re-supplied, top concentration 125 µM, read-out: IC50): 14.1 µM and ~14 µM"
"NC(=O)c1ccc[n+]([C@@H]2O[C@H](COP(=O)([O-])OP(=O)(O)OC[C@H]3O[C@@H](n4cnc5c(N)ncnc54)[C@H](O)[C@@H]3O)[C@@H](O)[C@H]2O)c1 [Nadide, reference compound]",100,99.9,–,–
"CN1CCCN=C1/C=C/c1cccc(O)c1 [Oxantel pamoate, reference compound]",56,55.9,–,"IC50 [3]: 11.7 µM and 12 µM; Hill slope ([3]; FDA-approved hit compounds, confirmatory HTRF assays): 1.34"
"CC(=O)[O][Hg][c]1ccccc1 [Phenylmercuric acetate, reference compound]",–,–,–,NSP3 Mac1 inhibition at 50 µM (%) [3]: 58.1%
"C=CC1=C(C)c2cc3[nH]c(cc4nc(cc5[nH]c(cc1n2)c(C)c5CCC(=O)O)C(CCC(=O)O)=C4C)c(C)c3C=C [Protoporphyrin IX, reference compound]",–,75,–,–
"O=C(O)c1cc(O)c2c(c1)[C@H]([C@H]1c3cc(C(=O)O)cc(O)c3C(=O)c3c(O[C@@H]4O[C@H](CO)[C@@H](O)[C@H](O)[C@H]4O)cccc31)c1cccc(O[C@@H]3O[C@H](CO)[C@@H](O)[C@H](O)[C@H]3O)c1C2=O [Sennoside A, reference compound]",112,112,–,–
"Nc1ccc(S(=O)(=O)[O-])cc1.Nc1ccc(S(=O)(=O)[O-])cc1.O.O.O.O.[Zn+2] [Sulfanilate zinc, reference compound]",44.2,–,–,–
"Cc1ccc(C(=O)Nc2ccc(S(=O)(=O)O)c3cc(S(=O)(=O)O)cc(S(=O)(=O)O)c23)cc1NC(=O)c1cccc(NC(=O)Nc2cccc(C(=O)Nc3cc(C(=O)Nc4ccc(S(=O)(=O)O)c5cc(S(=O)(=O)O)cc(S(=O)(=O)O)c45)ccc3C)c2)c1 [Suramin hexasodium, reference compound]",–,55.8,confirm the inhibitory activity,–
"C[CH2][Hg][S]c1ccccc1C(=O)[O-].[Na+] [Thimerosal, reference compound]",–,–,–,IC50 [4]: 5.2 µM
"C=CCCCCCCCCC(=O)[O-].C=CCCCCCCCCC(=O)[O-].[Zn+2] [Zinc undecylenate, reference compound]",68.0,–,–,–
"Nc1ncnc2[nH]cnc12 [adenine, reference compound]",–,–,did not show any inhibitory activity,–
"N[C@@H](C(=O)N[C@@H]1C(=O)N2C(C(=O)O)=C(Cl)CS[C@H]12)c1ccccc1 [cefaclor, reference compound]",–,–,could yet not measure any inhibitory activity,–
"NNc1nncc2ccccc12 [hydralazine, reference compound]",–,–,no NSP3 Mac1 inhibition,–
"O=C(O)CCc1nc(-c2ccccc2)c(-c2ccccc2)o1 [oxaprozin, reference compound]",–,–,could not be identified in our screen,–
"COCCCOc1ccnc(C[S+]([O-])c2nc3ccccc3[nH]2)c1C (stereo not shown) [rabeprazole, reference compound]",–,–,could yet not measure any inhibitory activity,–
"CCCc1nc2c(C)cc(-c3nc4ccccc4n3C)cc2n1Cc1ccc(-c2ccccc2C(=O)O)cc1 [telmisartan, reference compound]",–,–,could yet not measure any inhibitory activity,–
Candicidin [reference compound],50.1,–,–,"NSP3 Mac1 inhibition at 50 µM (%) ([3]; FDA-approved compound library primary screen, 50 µM, single shot, listed as candicidin): 50%"
Chlorophyllide Cu complex Na salt [reference compound],106.7,–,–,"NSP3 Mac1 inhibition at 50 µM (%) ([3]; FDA-approved compound library primary screen, 50 µM, single shot, listed as chlorophyllide–copper complex): 106%"
